Patent publication US7781565B2 (priority 2006, dated 2010)
Entries after “also recorded” stand apart in the source; their conditions may differ.

System: NCI-60 cell lines
Format: cell-based, human

| Substance | Cell Line the peptide is associated with (peptide recovered from phage library selection on this NCI-60 cell line) | Cell Line with which the peptide (and its tripeptide motif) is associated | Cell Line (NCI-60 cell line the peptide is associated with) | Cell Line (NCI-60 cell line the peptide and its motif are associated with) |
| --- | --- | --- | --- | --- |
| QKPGAVG | T-47D Breast |  |  |  |
| TFGKGGL |  | HL-60-Leukemia |  |  |
| SRYGLRR |  | RPMI-8226-Leukemia |  |  |
| QGYALRV |  | H23-Lung |  |  |
| PLRSVWS |  |  | SF-268 CNS |  |
| VDGSGDD |  |  |  | DU-145 Prostate |
| RGPSQVL |  |  |  | PC3 Prostate |
| ALVSFSV |  | EKVX-Lung |  |  |
| RAMGGAG |  | RPMI-8226-Leukemia |  |  |
| AKLGSVY |  | H226-Lung |  |  |
| RWLSLLS |  |  | MALME-3M Melanoma |  |
| GGSVEGQ | ACHN Renal |  |  |  |
| LLSSRRC |  |  |  | SK-MEL-2 Melanoma |
| RAVERVA | CAIK-1 Renal |  |  |  |
| RRAGGSV |  |  |  | OVCAR-5 Ovarian |
| DQQEAGS |  |  |  | 786-0 Renal |
| YTGSSPS |  |  |  | SK-OV-3-3 Ovarian |
| LSMLRSA |  | H322-Lung |  |  |
| KMRIAGR | SN12C Renal |  |  |  |
| TGFGAVG |  | HL-60-Leukemia |  |  |
| VRANGGS | MDA-MB-231 Breast |  |  |  |
| AGRSCNL |  |  | HCT-116 Colon |  |
| PGGSDAA |  |  | SNB-19 CNS |  |

| Substance | Cell Line the peptide is associated with (peptide recovered from phage library selection on this NCI-60 cell line) | Cell Line with which the peptide (and its tripeptide motif) is associated | Cell Line (NCI-60 cell line the peptide is associated with) | Cell Line (NCI-60 cell line the peptide and its motif are associated with) |
| --- | --- | --- | --- | --- |
| IAMAGLR |  |  |  | SK-MEL-2 Melanoma |
| PRGRLFD |  |  | HT-29 Colon |  |
| DGVSPLW | TK-10 Renal |  |  |  |
| RGAVREM | SN12C Renal |  |  |  |
| SGRVFRF | HS 578 T Breast |  |  |  |
| GVGGGAG | MDA-MB-435-Breast |  |  |  |
| PRGSLFA | UO31 Renal |  |  |  |
| SGLVAMV |  |  | SW620-Colon |  |
| PVGAAVA |  |  |  | UACC62 Melanoma |
| DPRGLRV |  | HL-60-Leukemia |  |  |
| RLSGAGD |  |  |  | OVCAR-5 Ovarian |
| GLVSSLP |  |  | HCT-15 Colon |  |
| GGRRVVV | NCI/ADR-RES Breast |  |  |  |
| LGSSSHI | NCI/ADR-RES Breast |  |  |  |
| RVGAGWP | BT-549 Breast |  |  |  |
| WIWRAVS |  |  | SF-268 CNS |  |
| ASYAGLV |  |  |  | IGROV1 Ovarian |
| VLRGSTP |  |  |  | PC3 Prostate |
| SLRSGIV |  | EKVX-Lung |  |  |
| GVLPVVT |  |  | HCT-15 Colon |  |
| AEPRGRV |  | H460-Lung |  |  |
| ASLRYYV |  | SR Leukemia |  |  |
| GRLYLGI |  |  | SF-295 CNS |  |

| Substance | Cell Line the peptide is associated with (peptide recovered from phage library selection on this NCI-60 cell line) | Cell Line with which the peptide (and its tripeptide motif) is associated | Cell Line (NCI-60 cell line the peptide is associated with) | Cell Line (NCI-60 cell line the peptide and its motif are associated with) |
| --- | --- | --- | --- | --- |
| GAGLSTS |  | H322-Lung |  |  |
| AGGIWIR |  |  | KM-12C Colon |  |
| LSFSRGS |  | HL-60-Leukemia |  |  |
| ARLLRGG |  |  |  | DU-145 Prostate |
| ASLPVLD |  |  |  | M14 Melanoma |
| WAGLSPS |  | Hop-92-Lung |  |  |
| WGAGLDA |  |  |  | OVCAR-4 Ovarian |
| WGATAGG |  | Hop-62-Lung |  |  |
| TQYYGSS |  |  | SNB-19 CNS; also recorded: SF-539 CNS |  |
| VLRSALQ |  |  | KM-12C Colon |  |
| WAHGVLS |  |  |  | M14 Melanoma |
| WRASPGM | BT-549 Breast |  |  |  |
| RLLSEGY |  |  | SNB-75 CNS |  |
| PNRRVSA |  | Hop-92-Lung |  |  |
| RRGSVAE | HS 578 T Breast |  |  |  |
| GLRGVVK |  |  | HCT-116 Colon |  |
| LRSGSLG |  |  | SF-268 CNS |  |
| IAAVWRS |  |  | HCT-116 Colon |  |
| GNGGARG |  |  |  | M14 Melanoma |
| VGLRVRF | BT-549 Breast |  |  |  |
| YYGERSS |  |  |  | OVCAR-5 Ovarian |
| AGSLSVF |  | CCRF-CEM Leukemia |  |  |
| GSGRALA |  |  |  | SK-MEL-2 Melanoma |

| Substance | Cell Line the peptide is associated with (peptide recovered from phage library selection on this NCI-60 cell line) | Cell Line with which the peptide (and its tripeptide motif) is associated | Cell Line (NCI-60 cell line the peptide is associated with) | Cell Line (NCI-60 cell line the peptide and its motif are associated with) |
| --- | --- | --- | --- | --- |
| GAVVKPI |  | A549-Lung |  |  |
| LLSGVIL |  |  | LOX-IMVI Melanoma |  |
| TVGSSLG | T-47D Breast |  |  |  |
| RPWGAVA |  |  |  | SK-OV-3-3 Ovarian |
| MQGRVIV |  |  |  | SK-OV-3-3 Ovarian |
| DGAVILH |  |  |  | UACC 257 Melanoma |
| LAGSTRR |  | SR Leukemia |  |  |
| FTRGAAS |  |  |  | SK-MEL-2 Melanoma |
| SRLSYYA |  |  | KM-12C Colon |  |
| ALVSRRG |  | Molt-4-Leukemia |  |  |
| VYGGRSE | CAIK-1 Renal |  |  |  |
| NRAVLSA |  |  |  | SK-OV-3-3 Ovarian |
| LSSGLVS |  | H460-Lung |  |  |
| HAAVEPS |  |  |  | OVCAR-5 Ovarian |
| SRVSFHE |  |  | MALME-3M Melanoma |  |
| VHSLRAS |  |  |  | UACC 257 Melanoma |
| RSGRVSN |  |  |  | SK-OV-3-3 Ovarian |
| RQKCGGL |  |  | HT-29 Colon |  |
| ALVSTIL | UO31 Renal |  |  |  |
| LLRGLEL |  | HL-60-Leukemia |  |  |
| GAVRSVM | TK-10 Renal |  |  |  |
| TLVLGGS |  | Hop-92-Lung |  |  |
| LGGLGLY |  |  |  | DU-145 Prostate |

| Substance | Cell Line the peptide is associated with (peptide recovered from phage library selection on this NCI-60 cell line) | Cell Line with which the peptide (and its tripeptide motif) is associated | Cell Line (NCI-60 cell line the peptide is associated with) | Cell Line (NCI-60 cell line the peptide and its motif are associated with) |
| --- | --- | --- | --- | --- |
| AFGGGSM | SN12C Renal |  |  |  |
| FRAASLL | MDA-MB-231 Breast |  |  |  |
| WAHAASY | CAIK-1 Renal |  |  |  |
| TAAGSSF | HS 578 T Breast |  |  |  |
| LSGRVIV | UO31 Renal |  |  |  |
| DVHARGD | NCI/ADR-RES Breast |  |  |  |
| ASLSVVI | UO31 Renal |  |  |  |
| DDGRVHR | BT-549 Breast |  |  |  |
| QLLSQVY | MCF-7 Breast |  |  |  |
| DRYMLRS |  | H460-Lung |  |  |
| PGGGRGR | UO31 Renal |  |  |  |
| LLSPRGT |  |  | SF-295 CNS |  |
| TTQLRGV |  |  |  | UACC62 Melanoma |
| GGVRLGG |  |  |  | PC3 Prostate |
| ARGGESA |  |  |  | SK-OV-3-3 Ovarian |
| WTERASA |  |  | HCT-15 Colon |  |
| RAGRGFE |  |  |  | UACC62 Melanoma |
| ADLGAGW |  |  |  | OVCAR-4 Ovarian |
| RGLQGGR |  |  |  | SK-MEL-2 Melanoma |
| GLREAHV |  |  |  | UACC62 Melanoma |
| AAVWAAD |  | HL-60-Leukemia |  |  |
